Data on four molecules can be found in publication PMC9719863 (Molecular Metabolism, 2022).

Test [1] addresses T1, mGIPR (Mus musculus, UniProt Q0P543).
T1 sequence (Q0P543 19-460): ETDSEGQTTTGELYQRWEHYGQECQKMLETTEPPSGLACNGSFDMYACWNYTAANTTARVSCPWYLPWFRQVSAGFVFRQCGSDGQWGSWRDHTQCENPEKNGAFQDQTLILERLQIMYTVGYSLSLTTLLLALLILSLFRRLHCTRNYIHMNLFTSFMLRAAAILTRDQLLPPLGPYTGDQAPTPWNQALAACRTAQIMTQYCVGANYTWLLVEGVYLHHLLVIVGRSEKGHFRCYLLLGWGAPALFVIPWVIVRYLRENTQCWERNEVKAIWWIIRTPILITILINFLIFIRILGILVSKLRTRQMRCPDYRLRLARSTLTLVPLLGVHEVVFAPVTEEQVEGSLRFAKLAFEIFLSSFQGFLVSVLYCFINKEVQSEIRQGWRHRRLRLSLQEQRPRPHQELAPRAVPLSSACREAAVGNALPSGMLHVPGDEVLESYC
In kind it is binding.

The target in test [2] is T1, mGIPR. Description: cAMP CRE-luciferase assay in BHK cells expressing GIPR. It counts as cell-based. As to conditions: for Agonism at the mGIPR (cAMP production by peptide alone): agonist mode, without native ligand. (Changes in cAMP serve as a functional read-out for many G protein-coupled receptors.)
In test [3] the target is T2, hGIPR (Homo sapiens, UniProt P48546).
T2 sequence (P48546 22-466): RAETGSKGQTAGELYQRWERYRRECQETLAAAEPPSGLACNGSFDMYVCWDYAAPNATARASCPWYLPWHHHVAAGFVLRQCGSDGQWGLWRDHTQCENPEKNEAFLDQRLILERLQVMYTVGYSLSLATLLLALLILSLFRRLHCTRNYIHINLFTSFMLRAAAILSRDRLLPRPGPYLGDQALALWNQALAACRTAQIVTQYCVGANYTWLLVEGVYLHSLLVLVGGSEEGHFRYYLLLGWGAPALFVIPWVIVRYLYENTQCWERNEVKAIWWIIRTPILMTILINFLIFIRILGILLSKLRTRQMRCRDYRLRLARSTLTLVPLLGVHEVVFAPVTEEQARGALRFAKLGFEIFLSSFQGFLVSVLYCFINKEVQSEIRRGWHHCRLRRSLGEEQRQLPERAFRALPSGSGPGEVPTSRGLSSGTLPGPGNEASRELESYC
Described as above. In kind it is cell-based. The following applies: agonist mode, without native ligand.

Test [4] addresses T2, hGIPR. In kind it is binding.
The target in test [5] is T3, human GIP receptor (human) (UniProt P48546).
T3 sequence: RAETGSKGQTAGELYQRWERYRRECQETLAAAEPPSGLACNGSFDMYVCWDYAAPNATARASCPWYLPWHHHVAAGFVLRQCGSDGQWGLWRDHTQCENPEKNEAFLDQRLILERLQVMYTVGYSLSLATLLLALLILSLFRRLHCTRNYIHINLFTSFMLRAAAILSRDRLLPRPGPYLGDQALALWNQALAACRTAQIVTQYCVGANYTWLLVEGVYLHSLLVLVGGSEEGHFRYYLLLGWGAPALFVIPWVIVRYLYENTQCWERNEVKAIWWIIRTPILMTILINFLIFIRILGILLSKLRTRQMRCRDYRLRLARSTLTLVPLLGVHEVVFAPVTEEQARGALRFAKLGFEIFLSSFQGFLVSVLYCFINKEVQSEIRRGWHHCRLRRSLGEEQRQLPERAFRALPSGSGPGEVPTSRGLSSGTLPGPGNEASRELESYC

Test [6] addresses T4, mouse GIP receptor (mouse) (UniProt Q0P543).
T4 sequence: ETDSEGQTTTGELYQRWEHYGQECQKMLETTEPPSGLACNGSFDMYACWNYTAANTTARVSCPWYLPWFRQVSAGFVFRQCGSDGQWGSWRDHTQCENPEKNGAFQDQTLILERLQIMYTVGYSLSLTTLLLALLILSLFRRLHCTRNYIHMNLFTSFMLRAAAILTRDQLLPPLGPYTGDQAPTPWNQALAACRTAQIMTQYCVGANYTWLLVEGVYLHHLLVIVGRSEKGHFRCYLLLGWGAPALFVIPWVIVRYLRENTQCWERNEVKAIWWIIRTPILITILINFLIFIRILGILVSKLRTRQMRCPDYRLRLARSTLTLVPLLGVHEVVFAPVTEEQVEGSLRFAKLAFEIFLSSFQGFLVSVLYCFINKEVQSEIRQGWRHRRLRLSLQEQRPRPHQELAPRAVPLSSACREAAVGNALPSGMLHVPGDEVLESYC

Where two headings read alike, the source gives them in different places. *1 amine or outer side, *2 acyl side, *3 side chain or, on linkers, in order; H or OH if unused. Where a SMILES comes first, the peptide text is derived from it. Where no end group is shown, it is not given here. Side-chain parts run from the residue outwards. [ ]: non-standard residue; d: D form. The star is where a group is joined. γGlu = O=C(O)[C@H](CCC(=O)[*:2])N[*:1]; Palmitoyl = CCCCCCCCCCCCCCCC(=O)*; PhLac = O=C(O)[C@@H](O)Cc1ccccc1

`CC[C@H](C)[C@H](NC(=O)[C@H](CO)NC(=O)[C@H](Cc1ccc(O)cc1)NC(=O)[C@H](CC(=O)O)NC(=O)[C@H](CO)NC(=O)[C@@H](NC(=O)[C@H](Cc1ccccc1)NC(=O)[C@@H](NC(=O)CNC(=O)[C@@H](N)CCC(=O)O)[C@@H](C)O)[C@@H](C)CC)C(=O)N[C@@H](C)C(=O)N[C@@H](CCSC)C(=O)N[C@@H](CC(=O)O)C(=O)N[C@@H](CCCCN)C(=O)N[C@H](C(=O)N[C@@H](Cc1c[nH]cn1)C(=O)N[C@@H](CCC(N)=O)C(=O)N[C@@H](CCC(N)=O)C(=O)N[C@@H](CC(=O)O)C(=O)N[C@@H](Cc1ccccc1)C(=O)N[C@H](C(=O)N[C@@H](CC(N)=O)C(=O)N[C@@H](Cc1c[nH]c2ccccc12)C(=O)N[C@@H](CC(C)C)C(=O)N[C@@H](CC(C)C)C(=O)N[C@@H](C)C(=O)N[C@@H](CCC(N)=O)C(=O)N[C@@H](CCCCN)C(N)=O)C(C)C)[C@@H](C)CC` [Peptide 1, hGIP(3–30), reference compound]: the half-inhibitory concentration (IC50) (commonly the midpoint of a concentration-inhibition curve) in test [1] was 35.1 ± 16.9 nM; in test [2] it was greater than 6000 nM. In addition, the “Agonism at the mGIPR (cAMP production by peptide alone)” value (“Agonism at the mGIPR” below) in test [2] is “no significant agonism”. Besides, the “Agonism at the hGIPR (cAMP production by peptide alone)” value (from here on “Agonism at the hGIPR”) in test [3] is “partial agonism”.
Regarding `CC[C@H](C)[C@H](NC(=O)[C@H](CO)NC(=O)[C@H](Cc1ccc(O)cc1)NC(=O)[C@H](CC(=O)O)NC(=O)[C@H](CO)NC(=O)[C@@H](NC(=O)[C@@H](O)Cc1ccccc1)[C@@H](C)CC)C(=O)N[C@@H](C)C(=O)N[C@@H](CC(C)C)C(=O)N[C@@H](CC(=O)O)C(=O)N[C@@H](CCCCN)C(=O)N[C@H](C(=O)N[C@@H](CCCNC(=N)N)C(=O)N[C@@H](CCC(N)=O)C(=O)N[C@@H](CCC(N)=O)C(=O)N[C@@H](CCC(=O)O)C(=O)N[C@@H](Cc1ccccc1)C(=O)N[C@H](C(=O)N[C@@H](CC(N)=O)C(=O)N[C@@H](Cc1c[nH]c2ccccc12)C(=O)N[C@@H](CC(C)C)C(=O)N[C@@H](CC(C)C)C(=O)N[C@@H](C)C(=O)N[C@@H](CCC(N)=O)C(=O)N[C@@H](CCCCN)C(=O)NCC(=O)O)C(C)C)[C@@H](C)CC` [Peptide 5, [Pla6, L14, R18, E21] hGIP(6–31)] (H-[PhLac]ISDYSIALDKIRQQEFVNWLLAQKG-OH), the IC50 in test [1] was 22.7 ± 7.9 nM; in test [4], 2.98 ± 1.68 nM. Moreover, the “Agonism at the mGIPR” value in test [2] is “no significant agonism”. Further, the “Agonism at the hGIPR” value in test [3] is “no significant agonism”.
For the molecule `CCCCCCCCCCCCCCCC(=O)N[C@@H](CCC(=O)NCCCC[C@H](NC(=O)[C@H](Cc1ccc(O)cc1)NC(=O)[C@H](CC(=O)O)NC(=O)[C@H](CO)NC(=O)[C@@H](NC(=O)[C@@H](O)Cc1ccccc1)[C@@H](C)CC)C(=O)N[C@H](C(=O)N[C@@H](C)C(=O)N[C@@H](CC(C)C)C(=O)N[C@@H](CC(=O)O)C(=O)N[C@@H](CCCCN)C(=O)N[C@H](C(=O)N[C@@H](CCCNC(=N)N)C(=O)N[C@@H](CCC(N)=O)C(=O)N[C@@H](CCC(N)=O)C(=O)N[C@@H](CCC(=O)O)C(=O)N[C@@H](Cc1ccccc1)C(=O)N[C@H](C(=O)N[C@@H](CC(N)=O)C(=O)N[C@@H](Cc1c[nH]c2ccccc12)C(=O)N[C@@H](CC(C)C)C(=O)N[C@@H](CC(C)C)C(=O)N[C@@H](C)C(=O)N[C@@H](CCC(N)=O)C(=O)N[C@@H](CCCCN)C(=O)NCC(=O)O)C(C)C)[C@@H](C)CC)[C@@H](C)CC)C(=O)O` [Peptide 8, [Pla6, L14, R18, E21] hGIP(6–31)-K11 (γE-C16)] (H-[PhLac]ISDYK([γGlu-Palmitoyl])IALDKIRQQEFVNWLLAQKG-OH), the IC50 was 1.55 ± 0.07 nM in test [1] and 0.5 ± 0.08 nM in test [4]. The “Agonism at the mGIPR” value in test [2] is reported as “negligible cAMP production as agonists”. Besides, the “Agonism at the hGIPR” value in test [3] is listed as “negligible cAMP production as agonists”.

B1: [L14, R18, E21] hGIP(3-30) amide (peptide)
peptide: EGTFISDYSIALDKIRQQEFVNWLLAQK-NH2
B1 registered a maximal % inhibition of GIP-induced cAMP in BHK cells expressing hGIPR in test [5] of 72%. Moreover, in test [6], the maximal % inhibition of GIP-induced cAMP in BHK cells expressing mGIPR was 86%.
